These results are taken from the Kinase Knowledgebase extract (Sharma et al. 2016).

The assay deals with EGFR (UniProt P00533).
EGFR, sequence (P00533 whole entry, looked up): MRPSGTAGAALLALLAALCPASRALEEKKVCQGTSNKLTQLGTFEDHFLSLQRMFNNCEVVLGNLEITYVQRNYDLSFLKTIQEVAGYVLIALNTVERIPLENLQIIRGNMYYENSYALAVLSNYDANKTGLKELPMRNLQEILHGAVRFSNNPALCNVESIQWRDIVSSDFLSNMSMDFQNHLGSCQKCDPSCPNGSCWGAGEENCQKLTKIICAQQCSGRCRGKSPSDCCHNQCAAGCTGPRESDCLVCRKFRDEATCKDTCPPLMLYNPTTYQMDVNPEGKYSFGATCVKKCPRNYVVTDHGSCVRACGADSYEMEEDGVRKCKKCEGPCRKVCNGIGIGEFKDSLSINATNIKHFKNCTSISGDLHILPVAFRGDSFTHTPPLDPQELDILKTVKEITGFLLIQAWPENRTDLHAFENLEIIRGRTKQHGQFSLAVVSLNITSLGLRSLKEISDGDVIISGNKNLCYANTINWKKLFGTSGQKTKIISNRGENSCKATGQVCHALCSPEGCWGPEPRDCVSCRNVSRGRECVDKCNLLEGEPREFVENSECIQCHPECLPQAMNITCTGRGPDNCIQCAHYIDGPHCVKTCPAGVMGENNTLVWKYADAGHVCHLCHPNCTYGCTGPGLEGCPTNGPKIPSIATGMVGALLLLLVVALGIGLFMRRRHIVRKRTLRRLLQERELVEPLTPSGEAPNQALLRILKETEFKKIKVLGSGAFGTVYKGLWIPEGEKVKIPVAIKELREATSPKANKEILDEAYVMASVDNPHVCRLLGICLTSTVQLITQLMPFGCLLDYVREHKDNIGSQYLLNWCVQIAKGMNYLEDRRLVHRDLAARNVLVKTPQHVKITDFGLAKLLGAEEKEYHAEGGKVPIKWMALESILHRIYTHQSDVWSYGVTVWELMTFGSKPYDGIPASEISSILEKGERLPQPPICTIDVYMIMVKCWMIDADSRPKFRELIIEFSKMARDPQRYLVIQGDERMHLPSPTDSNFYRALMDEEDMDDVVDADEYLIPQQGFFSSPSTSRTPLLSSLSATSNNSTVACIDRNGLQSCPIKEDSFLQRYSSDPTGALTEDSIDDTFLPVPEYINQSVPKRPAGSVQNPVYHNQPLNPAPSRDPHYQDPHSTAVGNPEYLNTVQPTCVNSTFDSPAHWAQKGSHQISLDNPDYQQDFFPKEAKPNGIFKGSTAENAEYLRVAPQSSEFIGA

What is called IC50 is the concentration needed to halve the response being measured. A higher IC50 goes with weaker potency. `CCC(=O)Nc1csc2ccccc2c1=O`: the IC50 was > 100 µM.

On to `COC(=O)C(=O)Nc1csc2ccccc2c1=O`, for which the IC50 was > 100 µM.

For the compound `CN(C)Cc1coc2ccccc2c1=O`, the 50% inhibitory concentration (IC50) is > 100 µM.

For the compound `CCNC(=O)Nc1csc2ccc(F)cc2c1=O`, the half-inhibitory concentration (IC50) is > 100 µM.

With `CCCCNC(=O)Nc1coc2ccccc2c1=O`, the concentration for half-maximal inhibition (IC50) was > 100 µM.

For the compound `CNC(=O)Nc1csc2ccccc2c1=O`, the IC50 was > 100 µM.

For `CCNC(=O)Nc1csc2ccccc2c1=O`, the IC50 is > 100 µM.

As to `CCOC(=O)NC(=O)Nc1csc2ccccc2c1=O`, the IC50 is > 100 µM.

Regarding `CCNC(=O)Nc1coc2ccccc2c1=O`, the IC50 is > 100 µM.

The compound `O=c1cc(-c2ccc(O)cc2)oc2cc(O)cc(O)c12` came in with a half-maximal inhibitory concentration (IC50) of 25 µM.

Consider `O=C(CCO)Nc1csc2ccccc2c1=O`, for which the half-inhibitory concentration (IC50) is > 100 µM.

Turning to `CCNC(=O)Nc1csc2ccc(C)cc2c1=O`, the IC50 was > 100 µM.

For the compound `CCNC(=O)Nc1csc2ccc(OC)cc2c1=O`, the IC50 was > 100 µM.

On to `O=c1cc(-c2ccccc2)oc2ccccc12`, for which the half-maximal inhibitory concentration (IC50) is 50 µM.

Turning to `CC(C)(C)NC(=O)Nc1coc2ccccc2c1=O`, the half-inhibitory concentration (IC50) is > 100 µM.

Turning to `CCCCNC(=O)Nc1csc2ccccc2c1=O`, the 50% inhibitory concentration (IC50) is > 100 µM.

Turning to `CNC(=O)Nc1coc2ccccc2c1=O`, the IC50 was > 100 µM.

Consider `CC(C)NC(=O)Nc1coc2ccccc2c1=O`, for which the concentration for half-maximal inhibition (IC50) was > 100 µM.

With `CN(C)C(=O)Nc1coc2ccccc2c1=O`, the IC50 was > 100 µM.

As for `CCNC(=O)NC1=CS(=O)(=O)c2ccccc2C1=O`, the half-maximal inhibitory concentration (IC50) was > 100 µM.

Turning to `O=C(O)C(=O)Nc1csc2ccccc2c1=O`, the IC50 is > 100 µM.

As for `O=C(O)C(=O)Nc1cc(=O)c2ccccc2s1`, the IC50 was > 100 µM.
